Source: patent publication US12077503B2, “Substituted cyclic amides and their use as herbicides” (FMC CORPORATION, priority 2015, dated 2024)

How the values were obtained:
Assay type in all cases: in vivo
[1] = test system: sedge, umbrella (small-flower umbrella sedge, Cyperus difformis); test: Test B flooded paddy test; settings: Flood, 250 g ai/ha; 0 to 100 scale where 0 is no effect and 100 is complete control; 13 to 15 d
In short: (§1)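 Percent control, visually estimated after 13–15 d in the greenhouse on a 0–100 basis, compares treated pots with untreated ones; compound was put into paddy water 3 cm above the soil when plants had two leaves.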

rice (Oryra sativa) = test: Test B flooded paddy test; settings: Flood, 250 g ai/ha; 0 to 100 scale where 0 is no effect and 100 is complete control; 13 to 15 d
In short: as §1

[2] = test system: barnyardgrass (Echinochloa crus-galli); test: Test B flooded paddy test; settings: Flood, 250 g ai/ha; 0 to 100 scale where 0 is no effect and 100 is complete control; 13 to 15 d
In short: as §1

[3] = test system: ducksalad (Heteranthera limosa); test: Test B flooded paddy test; settings: Flood, 250 g ai/ha; 0 to 100 scale where 0 is no effect and 100 is complete control; 13 to 15 d
In short: as §1

corn (Zea mays) = test: Test A postemergence
In short: (§2)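 Each rating is a visual injury score from 0 to 100 given about 10 d after treatment, judged against untreated controls kept alongside in the greenhouse. In loam soil–sand blend, seeds got a preemergence directed soil spray, while postemergence plants were 2 to 10 cm tall at spraying.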

[4] = test system: blackgrass (Alopecurus myosuroides); test: Test A postemergence
In short: as §2

[5] = test system: giant foxtail (Setaria faberii); test: Test A postemergence
In short: as §2

[6] = test system: Galium (catchweed bedstraw, Galium aparine); test: Test A postemergence
In short: as §2

[7] = test system: wheat (Triticum aestivum); test: Test A postemergence
In short: as §2

Kochia (Kochia scoparia) [8] = test: Test A postemergence
In short: as §2

[9] = test system: barnyardgrass (Echinochloa crus-galli); test: Test A postemergence
In short: as §2

[10] = test system: pigweed (Amaranthus retroflexus); test: Test A postemergence
In short: as §2

[11] = test system: ragweed (common ragweed, Ambrosia elatior); test: Test A postemergence
In short: as §2

[12] = test system: ryegrass, Italian (Italian ryegrass, Lolium multiflorum); test: Test A postemergence
In short: as §2

[13] = test system: giant foxtail (Setaria faberii); test: Test A preemergence; settings: for Plant response rating, Foxtail, Giant: 125 g ai/ha; for Foxtail, Giant plant response rating (0 to 100 scale, 0 is no effect, 100 is complete control): 500 g ai/ha, visual injury approx. 10 d
In short: as §2

Kochia (Kochia scoparia) [14] = test: Test A preemergence; settings: for Plant response rating, Kochia: 125 g ai/ha; for Kochia plant response rating (0 to 100 scale, 0 is no effect, 100 is complete control): 500 g ai/ha, visual injury approx. 10 d
In short: as §2

[15] = test system: barnyardgrass (Echinochloa crus-galli); test: Test A preemergence; settings: for Plant response rating, Barnyardgrass: 125 g ai/ha; for Barnyardgrass plant response rating (0 to 100 scale, 0 is no effect, 100 is complete control): 500 g ai/ha, visual injury approx. 10 d
In short: as §2

[16] = test system: pigweed (Amaranthus retroflexus); test: Test A preemergence; settings: for Plant response rating, Pigweed: 125 g ai/ha; for Pigweed plant response rating (0 to 100 scale, 0 is no effect, 100 is complete control): 500 g ai/ha, visual injury approx. 10 d
[17] = test system: ragweed (common ragweed, Ambrosia elatior); test: Test A preemergence; settings: for Plant response rating, Ragweed: 125 g ai/ha; for Ragweed plant response rating (0 to 100 scale, 0 is no effect, 100 is complete control): 500 g ai/ha, visual injury approx. 10 d
In short: as §2

[18] = test system: ryegrass, Italian (Italian ryegrass, Lolium multiflorum); test: Test A preemergence; settings: for Plant response rating, Ryegrass, Italian: 125 g ai/ha; for Ryegrass, Italian plant response rating (0 to 100 scale, 0 is no effect, 100 is complete control): 500 g ai/ha, visual injury approx. 10 d
In short: as §2

[19] = 125 g ai/ha, postemergence, visual injury rating on 0 to 100 scale (0 no effect, 100 complete control), approx. 10 d
[20] = 500 g ai/ha, postemergence, 0 to 100 scale, 0 no effect, 100 complete control
[21] = preemergence, 0 to 100 scale (0 no effect, 100 complete control)
[22] = 125 g ai/ha, postemergence, visual rating after approx. 10 d, 0 to 100 scale (0 no effect, 100 complete control)
[23] = Postemergence, 500 g ai/ha, 0 to 100 scale where 0 is no effect and 100 is complete control
[24] = Preemergence, visual injury after approximately 10 d, 0 to 100 scale where 0 is no effect and 100 is complete control

## O=C1NCC(c2ccc(Br)cc2)C1C(=O)Nc1ccccc1F (stereo not drawn) [Compound 448]
[1]
  Plant response rating, Sedge, Umbrella: 0
Rice (Oryra sativa)
  Plant response rating, Rice: 0
[2]
  Plant response rating, Barnyardgrass: 40
[3]
  Plant response rating, Ducksalad: 95
Corn (Zea mays); [19]
  Corn plant response rating: 0
Corn (Zea mays); [20]
  Plant response rating, Corn: 0
[4]; [19]
  Blackgrass plant response rating: 0
[4]; [20]
  Plant response rating, Blackgrass: 30
[5]; [19]
  Foxtail, Giant plant response rating: 60
[5]; [20]
  Plant response rating, Foxtail, Giant: 80
[6]; [19]
  Galium plant response rating: 30
[6]; [20]
  Plant response rating, Galium: 50
[7]; [19]
  Wheat plant response rating: 0
[7]; [20]
  Plant response rating, Wheat: 0
Kochia (Kochia scoparia) [8]; [19]
  Kochia plant response rating: 30
Kochia (Kochia scoparia) [8]; [20]
  Plant response rating, Kochia: 50
[9]; [19]
  Barnyardgrass plant response rating: 80
[9]; [20]
  Plant response rating, Barnyardgrass: 90
[10]; [19]
  Pigweed plant response rating: 20
[10]; [20]
  Plant response rating, Pigweed: 40
[11]; [19]
  Ragweed plant response rating: 0
[11]; [20]
  Plant response rating, Ragweed: 0
[12]; [19]
  Ryegrass, Italian plant response rating: 0
[12]; [20]
  Plant response rating, Ryegrass, Italian: 20
[13]; [21]
  Plant response rating, Foxtail, Giant: 90
[13]; Preemergence
  Foxtail, Giant plant response rating (0 to 100 scale, 0 is no effect, 100 is complete control): 90
Kochia (Kochia scoparia) [14]; [21]
  Plant response rating, Kochia: 20
Kochia (Kochia scoparia) [14]; Preemergence
  Kochia plant response rating (0 to 100 scale, 0 is no effect, 100 is complete control): 50
[15]; [21]
  Plant response rating, Barnyardgrass: 90
[15]; Preemergence
  Barnyardgrass plant response rating (0 to 100 scale, 0 is no effect, 100 is complete control): 90
[16]; [21]
  Plant response rating, Pigweed: 20
[16]; Preemergence
  Pigweed plant response rating (0 to 100 scale, 0 is no effect, 100 is complete control): 40
[17]; [21]
  Plant response rating, Ragweed: 0
[17]; Preemergence
  Ragweed plant response rating (0 to 100 scale, 0 is no effect, 100 is complete control): 20
[18]; [21]
  Plant response rating, Ryegrass, Italian: 0
[18]; Preemergence
  Ryegrass, Italian plant response rating (0 to 100 scale, 0 is no effect, 100 is complete control): 20

## O=C(Nc1ccccc1F)C1C(=O)N(c2ccc([N+](=O)[O-])cc2)CC1c1cccc(C(F)(F)F)c1 (stereo not drawn) [Compound 602]
[1]
  Plant response rating, Sedge, Umbrella: 0
Rice (Oryra sativa)
  Plant response rating, Rice: 0
[2]
  Plant response rating, Barnyardgrass: 0
[3]
  Plant response rating, Ducksalad: 30
Corn (Zea mays); [22]
  Plant response rating, Corn: 0
Corn (Zea mays); [23]
  Plant response rating, Corn: 0
[4]; [22]
  Plant response rating, Blackgrass: 0
[4]; [23]
  Plant response rating, Blackgrass: 0
[5]; [22]
  Plant response rating, Foxtail, Giant: 0
[5]; [23]
  Plant response rating, Foxtail, Giant: 0
[6]; [22]
  Plant response rating, Galium: 0
[6]; [23]
  Plant response rating, Galium: 0
[7]; [22]
  Plant response rating, Wheat: 0
[7]; [23]
  Plant response rating, Wheat: 0
Kochia (Kochia scoparia) [8]; [22]
  Plant response rating, Kochia: 0
Kochia (Kochia scoparia) [8]; [23]
  Plant response rating, Kochia: 0
[9]; [22]
  Plant response rating, Barnyardgrass: 0
[9]; [23]
  Plant response rating, Barnyardgrass: 0
[10]; [22]
  Plant response rating, Pigweed: 0
[10]; [23]
  Plant response rating, Pigweed: 0
[11]; [22]
  Plant response rating, Ragweed: 0
[11]; [23]
  Plant response rating, Ragweed: 0
[12]; [22]
  Plant response rating, Ryegrass, Italian: 0
[12]; [23]
  Plant response rating, Ryegrass, Italian: 0
[13]; [24]
  Plant response rating, Foxtail, Giant: 0
[13]; Preemergence
  Foxtail, Giant plant response rating (0 to 100 scale, 0 is no effect, 100 is complete control): 0
Kochia (Kochia scoparia) [14]; [24]
  Plant response rating, Kochia: 0
Kochia (Kochia scoparia) [14]; Preemergence
  Kochia plant response rating (0 to 100 scale, 0 is no effect, 100 is complete control): 0
[15]; [24]
  Plant response rating, Barnyardgrass: 0
[15]; Preemergence
  Barnyardgrass plant response rating (0 to 100 scale, 0 is no effect, 100 is complete control): 0
[16]; [24]
  Plant response rating, Pigweed: 0
[16]; Preemergence
  Pigweed plant response rating (0 to 100 scale, 0 is no effect, 100 is complete control): 0
[17]; [24]
  Plant response rating, Ragweed: 0
[17]; Preemergence
  Ragweed plant response rating (0 to 100 scale, 0 is no effect, 100 is complete control): 0
[18]; [24]
  Plant response rating, Ryegrass, Italian: 0
[18]; Preemergence
  Ryegrass, Italian plant response rating (0 to 100 scale, 0 is no effect, 100 is complete control): 0
